Laboratory results as given in US7319094B2, “Increased and sustained in vivo gene expression using a nucleic acid, histone and amphipathic compound composition” (Rhode Island Hospital, priority 2001, dated 2008).
Entries after “also recorded” stand apart in the source; their conditions may differ.

Columns and labels:
Format in all cases: cell-based, human
[1] = system: PY-PI3 kinase (total PI3 kinase); test: PI3 kinase activity in anti-phospho-tyrosine (PY) immunoprecipitates; conditions: 24 or 48 hours of stimulation
Protocol: (§1) The cells were harvested in Triton lysis buffer supplemented with protease and phosphatase inhibitors. Total PI3K was immunoprecipitated from 500 μg protein in cell lysates using rabbit polyclonal antibodies to the p85 subunit of PI3K and Protein A sepharose. The immunoprecipitants were incubated for 5 minutes at room temperature with 10 μg of sonicated phosphatidylinositol in HEPES buffer (200 mM HEPES, 4 mM EGTA, 4 mM sodium phosphate, pH 7.0). Reactions were initiated by the addition of 5 μCi [α^32p] ATP, 15 mM MgCl2, 150 mM ATP, 1.5 mM Tris-HCl, pH 7.4, and 15 mM NaCl. After 10 minutes incubation at 30° C., the reactions were stopped by the addition of HCl to a final concentration of 1.2 N, followed by chloroform/methanol extraction. Phosphorylated lipids were analyzed by thin layer chromatography using gel plates pre-coated with 1% oxalate (Merck, White House Station, N.J.). PI3K activity was measured with a phosphorimager.
PI3 kinase is an important mediator of neuronal survival. The pro-survival effects of PI3K are mediated through activation of Akt (protein kinase B) and phosphorylation of Bad to render it inactivated. Inhibition of PI3 kinase activity is associated with PNET2 cell apoptosis. Therefore, experiments were carried out to determine if growth factor stimulated PI3 kinase activity was inhibited in insulin or IGF-1-stimulated cultures. Such inhibition has been observed following chronic ethanol exposure. Since insulin and IGF-1 can activate PI3 kinase through the insulin-receptor substrate-1 (IRS-1) or through IRS-1-independent pathways, both IRS1-associated PI3 kinase and total PI3 kinase activities were measured. These studies were conducted using insulin or PDGF stimulated cultures in which AD7c-NTP gene expression was induced by 3 mM IPTG stimulation. […] Levels of PI3 kinase activity were measured in anti-phospho-tyrosine (PY) immunoprecipitates. […] Similarly, PI3 kinase activity was readily detected in the PY immunoprecipitates prepared with cells stimulated with insulin or PDGF.

[2] = system: IRS-1-associated PI3 kinase; test: IRS-1-associated PI3 kinase activity; conditions: 3 mM IPTG-induced cultures, 30 minutes of stimulation
Protocol: as §1, with “After 10 minutes incubation at 30° C., the reactions were stopped by the addition of HCl to a final concentration of 1.2 N, followed by chloroform/methanol extraction.” left out
PI3 kinase is an important mediator of neuronal survival. […] Since insulin and IGF-1 can activate PI3 kinase through the insulin-receptor substrate-1 (IRS-1) or through IRS-1-independent pathways, both IRS1-associated PI3 kinase and total PI3 kinase activities were measured. […] Levels of PI3 kinase activity were measured in anti-phospho-tyrosine (PY) immunoprecipitates. […] Similarly, PI3 kinase activity was readily detected in the PY immunoprecipitates prepared with cells stimulated with insulin or PDGF.

phospho-Erk MAPK = test: Growth factor stimulated phospho-Erk MAPK, Western blot
Text: (§2) Standard Western blot assays wew used to measure cellular levels of p53, Bcl-2, p21/Waf1, phospho-tau, tau, c-fos, NTP, and activated (phosphorylated) forms of Erk mitogen activated protein (MAP) kinase, amino-terminal c-jun-activated kinase (pJNK), and p38/HOG1. Immunoprecipitation followed by Western blot analysis was used to measure p85 subunit associated with IRS1. For Western blot analysis of p53 Bcl-2, phospho-tau, tau, c-fos, and NTP, the cells were lysed in ice cold radioimmunoprecipitation assay (RIPA) buffer supplemented with protease and phosphatase inhibitors. For the immunoprecipitation studies, Western blot analysis of phospho-Erk, pJNK, and p38, and the PI3 kinase assays, the cells were harvested in Triton lysis buffer supplemented with protease and phosphatase inhibitors. Protein concentrations were measured using the BCA assay (Pierce, Rockford, Ill.). Samples containing 60 μg of protein were fractionated by sodium dodecyl sulfate polyacrylamide gel electrophoresis (SDS-PAGE), then transferred to PVDF membranes, and analyzed by Western immunoblotting. Immunoreactivity was detected with horseradish peroxidase conjugated secondary IgG and PicoWest enhanced chemiluminescence reagents (Pierce Chemical Company, Rockford, Ill.). CAT activity was measured using known methods.
The potential mechanisms by which the differential effects of insulin, IGF1 and PDGF might occur were explored by examining pathways, which mediate PNET2 neuronal apoptosis and neuritic sprouting. […] Western blot analysis was performed with cell lysates obtained from cultures stimulated with insulin, IGF1, or PDGF for 0-30 minutes or 24 hours with equivalent protein loading (60 μg/sample). The membranes were probed using antibodies to Erk, phospho-Erk, Jun, and phospho-JNK. […] In contrast, after 24 hours of AD7c-NTP gene induction and growth factor stimulation, high levels of phospho-Erk MAPK were detected in the IGF-1 and PDGF-stimulated cultures, but not in the serum-starved or insulin-stimulated cultures. […] In contrast, the levels of c-fos transcription factor were equally expressed after 24 hours IPTG induction of AD7c-NTP expression and either serum starvation or stimulation with insulin, IGF1 or PDGF.

[3] = system: nitric oxide synthase-3 (NOS-3); test: NOS-3 expression, Western blot; conditions: PNET2 cells induced to express AD7c-NTP; relative to PDGF-stimulated cultures
Text: as §2, with “methods. […]” for “methods.”

p21/Waf1 = p21/Waf1 expression, Western blot / MICE assay; conditions: PNET2 cells induced to express AD7c-NTP, growth factor stimulated
Text: as §2, with “For the immunoprecipitation studies, Western blot analysis of phospho-Erk, pJNK, and p38, and the PI3 kinase assays, the cells were harvested in Triton lysis buffer supplemented with protease and phosphatase inhibitors.” left out
The MICE assay is known in the art (e.g., as described by de la Monte et al., 1999, Biotechniques 26:107301076). […] Immunoreactivity was detected using horseradish peroxidase conjugated secondary antibody (Pierce, Rockford, Ill.) and the TMB soluble peroxidase substrate (Pierce, Rockford, Ill.). […]

Substance: insulin: Human insulin purchased from Novagen
- PY-PI3 kinase activity, 24 or 48 hours [1]: similar
- IRS-1-associated PI3 kinase activity [2]: sharply increased
- phospho-Erk MAPK level, short-term stimulation (phospho-Erk MAPK; 0-30 minutes stimulation): increased levels
- phospho-Erk MAPK level, 24 hours (phospho-Erk MAPK; 24 hours of AD7c-NTP induction and growth factor stimulation): reduced levels
- NOS-3 level [3]: increased levels
- p21/Waf1 level (p21/Waf1): increased levels of p21/Waf1; also recorded: significantly increased levels
